The series has as its system CCRIS mutagenicity, Ames/micronucleus/aberration tests. The experiment in a line: CCRIS mutagenicity studies.
Where [1] appears, read: Test System: AMES SALMONELLA TYPHIMURIUM, Strain/Indicator: TA98, Metabolic Activation: NONE, Method: PREINCUBATION
The mark [2] stands for this setting: Test System: AMES SALMONELLA TYPHIMURIUM, Strain/Indicator: TA100, Metabolic Activation: NONE, Method: PREINCUBATION
Where [3] appears, read: Test System: AMES SALMONELLA TYPHIMURIUM, Strain/Indicator: TA1535, Metabolic Activation: NONE, Method: PREINCUBATION
[4] abbreviates: Test System: AMES SALMONELLA TYPHIMURIUM, Strain/Indicator: TA1537, Metabolic Activation: NONE, Method: PREINCUBATION

The structures appear in SMILES notation. The source made the active and inactive calls. The rule behind the calls is not given here.

Take `C[C@H]1SC[C@@H](C(=O)N[C@@H](Cc2cnc[nH]2)C(=O)N2CCC[C@H]2C(N)=O)NC1=O`: the mutagenic call is “inactive; negative” under setting [1]; “inactive; negative” (Test System: AMES SALMONELLA TYPHIMURIUM, Strain/Indicator: TA98, Metabolic Activation: RAT, LIVER, S-9, AROCLOR 1254, Method: PREINCUBATION); “inactive; negative” under setting [2]; “inactive; negative” (Test System: AMES SALMONELLA TYPHIMURIUM, Strain/Indicator: TA100, Metabolic Activation: RAT, LIVER, S-9, AROCLOR 1254, Method: PREINCUBATION); “inactive; negative” under setting [3]; “inactive; negative” (Test System: AMES SALMONELLA TYPHIMURIUM, Strain/Indicator: TA1535, Metabolic Activation: RAT, LIVER, S-9, AROCLOR 1254, Method: PREINCUBATION). The mutagenic call was “inactive; negative” under setting [4]; “inactive; negative” (Test System: AMES SALMONELLA TYPHIMURIUM, Strain/Indicator: TA1537, Metabolic Activation: RAT, LIVER, S-9, AROCLOR 1254, Method: PREINCUBATION); “inactive; negative” (Test System: E. COLI, Strain/Indicator: WP2 UVRA, Metabolic Activation: NONE, Method: PREINCUBATION); “inactive; negative” (Test System: E. COLI, Strain/Indicator: WP2 UVRA, Metabolic Activation: RAT, LIVER, S-9, AROCLOR 1254, Method: PREINCUBATION).
In the case of `COC(=O)c1ccccc1O`, the mutagenic call (Test System: AMES SALMONELLA TYPHIMURIUM, Strain/Indicator: TA98, Metabolic Activation: GUINEA PIG, LIVER, S-9, PCB, Method: PREINCUBATION) was “inactive; negative”; the mutagenic call (Test System: AMES SALMONELLA TYPHIMURIUM, Strain/Indicator: TA98, Metabolic Activation: HAMSTER, LIVER, S-9, AROCLOR 1254 (30%), Method: PREINCUBATION) was “inactive; negative”; the mutagenic call (Test System: AMES SALMONELLA TYPHIMURIUM, Strain/Indicator: TA98, Metabolic Activation: HAMSTER, LIVER, S-9, AROCLOR 1254 (50%), Method: PREINCUBATION) is “inactive; negative”; the mutagenic call (Test System: AMES SALMONELLA TYPHIMURIUM, Strain/Indicator: TA98, Metabolic Activation: HAMSTER, LIVER, S-9, PCB, Method: PREINCUBATION) is “active; positive”; the mutagenic call (Test System: AMES SALMONELLA TYPHIMURIUM, Strain/Indicator: TA98, Metabolic Activation: MOUSE, LIVER, S-9, PCB, Method: PREINCUBATION) was “inactive; negative”; the mutagenic call under setting [1] was “inactive; negative”. Further, the mutagenic call is, setting by setting: (Test System: AMES SALMONELLA TYPHIMURIUM, Strain/Indicator: TA98, Metabolic Activation: RAT, LIVER, S-9, AROCLOR 1254 (30%), Method: PREINCUBATION) “inactive; negative”; (Test System: AMES SALMONELLA TYPHIMURIUM, Strain/Indicator: TA98, Metabolic Activation: RAT, LIVER, S-9, AROCLOR 1254 (50%), Method: PREINCUBATION) “inactive; negative”; (Test System: AMES SALMONELLA TYPHIMURIUM, Strain/Indicator: TA98, Metabolic Activation: RAT, LIVER, S-9, PCB, Method: PREINCUBATION) “inactive; negative”; (Test System: AMES SALMONELLA TYPHIMURIUM, Strain/Indicator: TA100, Metabolic Activation: GUINEA PIG, LIVER, S-9, PCB, Method: PREINCUBATION) “inactive; negative”; (Test System: AMES SALMONELLA TYPHIMURIUM, Strain/Indicator: TA100, Metabolic Activation: HAMSTER, LIVER, S-9, AROCLOR 1254 (30%), Method: PREINCUBATION) “inactive; negative”; (Test System: AMES SALMONELLA TYPHIMURIUM, Strain/Indicator: TA100, Metabolic Activation: HAMSTER, LIVER, S-9, AROCLOR 1254 (50%), Method: PREINCUBATION) “inactive; negative”. Further, the mutagenic call runs as follows: (Test System: AMES SALMONELLA TYPHIMURIUM, Strain/Indicator: TA100, Metabolic Activation: HAMSTER, LIVER, S-9, PCB, Method: PREINCUBATION) “active; positive”; (Test System: AMES SALMONELLA TYPHIMURIUM, Strain/Indicator: TA100, Metabolic Activation: MOUSE, LIVER, S-9, PCB, Method: PREINCUBATION) “inactive; negative”; under setting [2], “inactive; negative”; (Test System: AMES SALMONELLA TYPHIMURIUM, Strain/Indicator: TA100, Metabolic Activation: RAT, LIVER, S-9, AROCLOR 1254 (30%), Method: PREINCUBATION) “inactive; negative”; (Test System: AMES SALMONELLA TYPHIMURIUM, Strain/Indicator: TA100, Metabolic Activation: RAT, LIVER, S-9, AROCLOR 1254 (50%), Method: PREINCUBATION) “inactive; negative”; (Test System: AMES SALMONELLA TYPHIMURIUM, Strain/Indicator: TA100, Metabolic Activation: RAT, LIVER, S-9, PCB, Method: PREINCUBATION) “inactive; negative”. Besides, the mutagenic call runs as follows: (Test System: AMES SALMONELLA TYPHIMURIUM, Strain/Indicator: TA1535, Metabolic Activation: HAMSTER, LIVER, S-9, AROCLOR 1254 (30%), Method: PREINCUBATION) “inactive; negative”; (Test System: AMES SALMONELLA TYPHIMURIUM, Strain/Indicator: TA1535, Metabolic Activation: HAMSTER, LIVER, S-9, AROCLOR 1254 (50%), Method: PREINCUBATION) “inactive; negative”; under setting [3], “inactive; negative”; (Test System: AMES SALMONELLA TYPHIMURIUM, Strain/Indicator: TA1535, Metabolic Activation: RAT, LIVER, S-9, AROCLOR 1254 (30%), Method: PREINCUBATION) “inactive; negative”; (Test System: AMES SALMONELLA TYPHIMURIUM, Strain/Indicator: TA1535, Metabolic Activation: RAT, LIVER, S-9, AROCLOR 1254 (50%), Method: PREINCUBATION) “inactive; negative”; (Test System: AMES SALMONELLA TYPHIMURIUM, Strain/Indicator: TA1537, Metabolic Activation: HAMSTER, LIVER, S-9, AROCLOR 1254 (30%), Method: PREINCUBATION) “inactive; negative”. In addition, the mutagenic call is, setting by setting: (Test System: AMES SALMONELLA TYPHIMURIUM, Strain/Indicator: TA1537, Metabolic Activation: HAMSTER, LIVER, S-9, AROCLOR 1254 (50%), Method: PREINCUBATION) “inactive; negative”; under setting [4], “inactive; negative”; (Test System: AMES SALMONELLA TYPHIMURIUM, Strain/Indicator: TA1537, Metabolic Activation: RAT, LIVER, S-9, AROCLOR 1254 (30%), Method: PREINCUBATION) “inactive; negative”; (Test System: AMES SALMONELLA TYPHIMURIUM, Strain/Indicator: TA1537, Metabolic Activation: RAT, LIVER, S-9, AROCLOR 1254 (50%), Method: PREINCUBATION) “inactive; negative”.
Turning to `NC(=O)[C@@H]1CCCN1C(=O)[C@H](Cc1cnc[nH]1)NC(=O)[C@@H]1CCC(=O)N1`, the mutagenic call reads like this: (Test System: AMES SALMONELLA TYPHIMURIUM, Strain/Indicator: TA98, Metabolic Activation: NONE, Method: STANDARD PLATE) “inactive; negative”; (Test System: AMES SALMONELLA TYPHIMURIUM, Strain/Indicator: TA98, Metabolic Activation: RAT, LIVER, S-9, AROCLOR 1254, Method: STANDARD PLATE) “inactive; negative”; (Test System: AMES SALMONELLA TYPHIMURIUM, Strain/Indicator: TA100, Metabolic Activation: NONE, Method: STANDARD PLATE) “inactive; negative”; (Test System: AMES SALMONELLA TYPHIMURIUM, Strain/Indicator: TA100, Metabolic Activation: RAT, LIVER, S-9, AROCLOR 1254, Method: STANDARD PLATE) “inactive; negative”; (Test System: AMES SALMONELLA TYPHIMURIUM, Strain/Indicator: TA1535, Metabolic Activation: NONE, Method: STANDARD PLATE) “inactive; negative”; (Test System: AMES SALMONELLA TYPHIMURIUM, Strain/Indicator: TA1535, Metabolic Activation: RAT, LIVER, S-9, AROCLOR 1254, Method: STANDARD PLATE) “inactive; negative”. In addition, the mutagenic call runs as follows: (Test System: AMES SALMONELLA TYPHIMURIUM, Strain/Indicator: TA1537, Metabolic Activation: NONE, Method: STANDARD PLATE) “inactive; negative”; (Test System: AMES SALMONELLA TYPHIMURIUM, Strain/Indicator: TA1537, Metabolic Activation: RAT, LIVER, S-9, AROCLOR 1254, Method: STANDARD PLATE) “inactive; negative”.
For the compound `Cc1cnc2cc3nc(C)n(C)c3c(C)c2n1`, the mutagenic call (Test System: AMES SALMONELLA TYPHIMURIUM, Strain/Indicator: TA98, Metabolic Activation: S-9, Method: PREINCUBATION) was “inactive; negative”.

The values above are taken from PubChem BioAssay AID1259407 (Chemical Carcinogenesis Research Information System (CCRIS), 2018).
